Laboratory results reported in patent US9315546B2, “Growth hormone secretatogue receptor antagonists and uses thereof” (The Administrators of the Tulane Educational Fund, priority 2010, dated 2016).
Values joined by “and” are separate entries in the source; they are usually repeats but may differ in a detail not shown here. Identical values can stand only once. Where no end group is shown, it is not given here. [ ]: non-standard residue; d: D form. d2Nal = N[C@H](Cc1ccc2ccccc2c1)C(=O)O; Aib = CC(C)(N)C(=O)O; βAla = NCCC(=O)O

Experiments:
[1] = molecular target: T1, Ghrelin/GHRP/GHS Receptor (Rattus norvegicus, UniProt O08725); test: In vivo GH release in rat after i.v. peptide (serum GH by RIA)
T1 sequence (O08725 whole entry): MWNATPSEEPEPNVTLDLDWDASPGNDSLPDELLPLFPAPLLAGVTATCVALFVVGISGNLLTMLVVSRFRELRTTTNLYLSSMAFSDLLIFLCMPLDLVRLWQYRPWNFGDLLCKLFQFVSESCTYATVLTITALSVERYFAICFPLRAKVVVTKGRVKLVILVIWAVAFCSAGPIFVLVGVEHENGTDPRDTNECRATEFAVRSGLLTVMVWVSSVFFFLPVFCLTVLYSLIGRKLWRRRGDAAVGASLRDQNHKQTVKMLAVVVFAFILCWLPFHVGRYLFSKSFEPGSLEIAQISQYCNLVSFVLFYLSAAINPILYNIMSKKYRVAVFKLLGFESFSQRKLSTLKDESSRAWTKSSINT
Experimental: For the in vivo assay of GH Release in rat, immature female Sprague Dawley rats were obtained from Charles River from Wilmington, Mass. After arrival they were housed at 25° C. with a 14:10 h light:dark cycle. Water and Purina rat chow were available at libitum. Pups were weaned at 21 days of age.
Immature twenty six day old female Sprague Dawley rats, 3-6 rats per treatment dose, were pretreated with pentobarbital 20 minutes before iv injection of vehicle/peptide or peptide plus stimulator. Injection was made as a 0.1 ml solution. For the non-pentobarbital treated rat assay, peptides were administered iv into the tail vein of conscious rats. All animals were sacrificed by guillotine after iv peptide or vehicle. Trunk blood was collected at +10-15 minutes […], allowed to clot, centrifuged and serum stored until assayed for GH levels by RIA. The GH RIA reagents were distributed by the NIH. Control data was collected from rats treated with only the corresponding vehicle in the absence of peptide or stimulator. Control stimulated data was collected from rats treated with stimulator alone in the absence of any peptide.

[2] = molecular target: T1, Ghrelin/GHRP/GHS Receptor; test: GH release from cell culture of pituitary cells; format: cell-based; set-up: After dispersion, the cells were collected by centrifugation, wash with DMEM and placed into culture well; endogenous in cells; host or cells: dispersed primary rat pituitary cells, 4 days in culture; conditions: Table 8
Experimental: In vitro GH Release-Female rats of the CD-1 strain were housed in a constant temperature room at 24° C. with 14 h light and 10 h darkness. The rats were fed Purina Rat chow and water at libitum. All studies were started between 0800-1000 hours. Pituitaries of mature female Sprague Dawley rats were rapidly removed after decapitation, neurointermediate lobe discarded and then placed in a pH 7.4 buffer. The pituitaries were cut into ˜3-mm pieces and then transferred to a flask containing HEPS buffer with trypsin and incubated at 37° C. Cells were triturated several times during this period. After dispersion, the cells were collected by centrifugation, wash with DMEM and placed into culture well. Cell cultures were maintained for 4 days at 37° with 8% CO2 added to the incubator atmosphere. After 4 days in culture, cells were washed with lactated Ringer's solution adjusted to pH 7.2-7.4 and then vehicle, peptide alone or peptide plus stimulator was added to media. Incubation time was 60-120 minutes after which media was removed from each well for GH determination. The GH RIA reagents were distributed by the NIH. Control data was collected from cell cultures treated with only the corresponding vehicle in the absence of peptide or stimulator. Control stimulated data was collected from cell cultures treated with stimulator alone in the absence of any peptide.

[3] = peptide antagonist 10 μg i.v. + stimulator 1 μg
[4] = peptide antagonist 30 μg i.v. + stimulator 1 μg
[5] = Table 3, peptide alone 30 μg i.v.
[6] = Table 3, peptide alone 100 μg i.v.
[7] = Pentobarbital Rats, peptide alone 30 μg i.v.
[8] = Pentobarbital Rats, peptide alone 100 μg i.v.
[9] = peptide antagonist 100 μg i.v. + stimulator 1 μg
[10] = Non-Pentobarbital Rats, peptide 30 μg i.v. + stimulator 10 μg
[11] = Non-Pentobarbital Rats, peptide alone 30 μg i.v.
[12] = Table 3, peptide alone 1 μg i.v.
[13] = Table 3, peptide alone 3 μg i.v.
[14] = Table 3, peptide alone 10 μg i.v.
[15] = Table 5, peptide alone 1 μg i.v.
[16] = Table 5, peptide alone 3 μg i.v.
[17] = Table 5, peptide alone 10 μg i.v.
[18] = Table 5, peptide alone 30 μg i.v.

## Glyψ[CH2NH]-DβNal-Ala-Trp-DPhe-Lys-NH2 [1-Glyψ[CH2NH]-DβNal-Ala-Trp-DPhe-Lys-NH2]
[1]; peptide antagonist 10 μg i.v. + stimulator 0.3 μg
  Stimulated GH release: 1112 ± 200 ng/mL
[1]; [3]
  Stimulated GH release: 2307 ± 176 ng/mL and 1842 ± 454 ng/mL
[1]; peptide antagonist 30 μg i.v. + stimulator 0.3 μg
  Stimulated GH release: 578 ± 82 ng/mL
[1]; [4]
  Stimulated GH release: 890 ± 236 ng/mL and 1135 ± 140 ng/mL

## [βAla]W[dA][dW]F-NH2 [10-βAla-Trp-DAla-DTrp-Phe-NH2]
[1]; [5]
  Unstimulated Basal GH release: 341 ± 46 ng/mL
[1]; [6]
  Unstimulated Basal GH release: 636 ± 171 ng/mL

## [dA][d2Nal][dK][dW]FK-NH2 [3-DAla-DβNal-DLys-DTrp-Phe-Lys-NH2]
[1]; Pentobarbital Rats, peptide 30 μg i.v. + stimulator 1 μg
  Stimulated GH release (P + S): 2864 ± 828 ng/mL
[1]; Pentobarbital Rats, peptide 100 μg i.v. + stimulator 1 μg
  Stimulated GH release (P + S): 1198 ± 114 ng/mL
[1]; [7]
  Unstimulated GH release (−S): 323 ± 50 ng/mL
[1]; [8]
  Unstimulated GH release (−S): 812 ± 6 ng/mL
[1]; [4]
  Stimulated GH release: 2884 ± 828 ng/mL
[1]; [9]
  Stimulated GH release: 1198 ± 114 ng/mL

## Y[dA]F[Aib]-NH2 [1-Tyr-DAla-Phe-Aib-NH2]
[1]; [10]
  Stimulated GH release (P + S): 23 ± 5 ng/mL
[1]; [11]
  Unstimulated GH release (−S): 18 ± 1 ng/mL

## [dK][d2Nal]AW[dF]K-NH2 [1-DLys-DβNal-Ala-Trp-DPhe-Lys-NH2]
[1]; Pentobarbital Rats, peptide 3 μg i.v. (grid head; alignment uncertain) + stimulator 0.3 μg
  Stimulated GH release (P + S): 5232 ± 346 ng/mL
[1]; Pentobarbital Rats, peptide 10 μg i.v. (grid head; alignment uncertain) + stimulator 0.3 μg
  Stimulated GH release (P + S): 3404 ± 396 ng/mL
[1]; Pentobarbital Rats, peptide 30 μg i.v. + stimulator 0.3 μg
  Stimulated GH release (P + S): 704 ± 169 ng/mL
[1]; Pentobarbital Rats, peptide alone 3 μg i.v. (grid head; alignment uncertain)
  Unstimulated GH release (−S): 616 ± 169 ng/mL
[1]; Pentobarbital Rats, peptide alone 10 μg i.v. (grid head; alignment uncertain)
  Unstimulated GH release (−S): 847 ± 17 ng/mL
[1]; [7]
  Unstimulated GH release (−S): 629 ± 146 ng/mL
[1]; [8]
  Unstimulated GH release (−S): 228 ± 45 ng/mL

## DcyclohexylAla-Ala-Phe-DTrp-Lys-NH2 [3-DcyclohexylAla-Ala-Phe-DTrp-Lys-NH2]
[1]; [12]
  Unstimulated Basal GH release: 199 ± 63 ng/mL
[1]; [13]
  Unstimulated Basal GH release: 266 ± 68 ng/mL
[1]; [14]
  Unstimulated Basal GH release: 199 ± 23 ng/mL
[1]; [5]
  Unstimulated Basal GH release: 346 ± 82 ng/mL
[1]; [6]
  Unstimulated Basal GH release: 350 ± 61 ng/mL

## αγAbu-DTrp-DTrp-Lys-NH2 [2-αγAbu-DTrp-DTrp-Lys-NH2]
[1]; [15]
  Unstimulated Basal GH release: 57 ± 7 ng/mL
[1]; [16]
  Unstimulated Basal GH release: 84 ± 18 ng/mL
[1]; [17]
  Unstimulated Basal GH release: 62 ± 15 ng/mL

## Alaψ[CH2NH]His-DTrp-Ala-Trp-DPhe-Lys-NH2
[1]; [15]
  Unstimulated Basal GH release: 127 ± 32 ng/mL
[1]; [16]
  Unstimulated Basal GH release: 147 ± 37 ng/mL

## Tyr-DAla-Sar-NMePhe-NH2 [2-Tyr-DAla-Sar-NMePhe-NH2]
[1]; [10]
  Stimulated GH release (P + S): 24 ± 6 ng/mL
[1]; [11]
  Unstimulated GH release (−S): 18 ± 4 ng/mL

## DcyclohexylAla-Ala-Trp-DPhe-NH2 [5-DcyclohexylAla-Ala-Trp-DPhe-NH2]
[1]; [13]
  Unstimulated Basal GH release: 181 ± 28 ng/mL
[1]; [14]
  Unstimulated Basal GH release: 237 ± 18 ng/mL
[1]; [5]
  Unstimulated Basal GH release: 354 ± 81 ng/mL
[1]; [6]
  Unstimulated Basal GH release: 771 ± 76 ng/mL

## DThr-DαNal-DTrp-DPro-Arg-NH2 [5-DThr-DαNal-DTrp-DPro-Arg-NH2]
[1]; [15]
  Unstimulated Basal GH release: 60 ± 5 ng/mL
[1]; [16]
  Unstimulated Basal GH release: 130 ± 24 ng/mL
[1]; [17]
  Unstimulated Basal GH release: 134 ± 31 ng/mL

## Alaψ[CH2NH]-DβNal-Ala-Trp-DPhe-Lys-NH2 [6-Alaψ[CH2NH]-DβNal-Ala-Trp-DPhe-Lys-NH2]
[1]; peptide antagonist 3 μg i.v. + stimulator 1 μg
  Stimulated GH release: 2771 ± 157 ng/mL
[1]; [3]
  Stimulated GH release: 2341 ± 416 ng/mL
[1]; [4]
  Stimulated GH release: 1948 ± 450 ng/mL
[1]; [9]
  Stimulated GH release: 1639 ± 221 ng/mL

## inip-Trp-Trp-Phe-NH2 [10-inip-Trp-Trp-Phe-NH2]
[1]; [17]
  Unstimulated Basal GH release: 69 ± 3 ng/mL
[1]; [18]
  Unstimulated Basal GH release: 81 ± 10 ng/mL

## [dA]A[dA][dW]FK-NH2 [6-DAla-Ala-DAla-DTrp-Phe-Lys-NH2]
[1]; [17]
  Unstimulated Basal GH release: 228 ± 76 ng/mL
[1]; [18]
  Unstimulated Basal GH release: 172 ± 14 ng/mL
[1]; Table 5, peptide alone 100 μg i.v.
  Unstimulated Basal GH release: 153 ± 45 ng/mL

## [dA][d2Nal]AT[dT]K-NH2 [4-DAla-DβNal-Ala-Thr-DThr-Lys-NH2]
[1]; [13]
  Unstimulated Basal GH release: 255 ± 38 ng/mL
[1]; [5]
  Unstimulated Basal GH release: 288 ± 31 ng/mL
[1]; [6]
  Unstimulated Basal GH release: 386 ± 57 ng/mL

## H[dW]FW[dF]K-NH2 [8-His-DTrp-Phe-Trp-DPhe-Lys-NH2]
[1]; [12]
  Unstimulated Basal GH release: 67 ± 14 ng/mL
[1]; [13]
  Unstimulated Basal GH release: 141 ± 53 ng/mL
[1]; [14]
  Unstimulated Basal GH release: 197 ± 70 ng/mL
[1]; [5]
  Unstimulated Basal GH release: 509 ± 48 ng/mL

## DAla-DcyclohexylAla-Ala-Ala-Phe-DPhe-Nle-NH2
[2]; peptide 1 μg/ml
  Unstimulated Basal GH release: 286 ± 75 ng/mL
[2]; peptide 3 μg/ml
  Unstimulated Basal GH release: 177 ± 44 ng/mL
[2]; peptide 10 μg/ml
  Unstimulated Basal GH release: 271 ± 38 ng/mL
[2]; peptide 30 μg/ml
  Unstimulated Basal GH release: 376 ± 28 ng/mL

## Ac-[dK]Y[dW][dW]F-NH2 [9-Ac-DLys-Tyr-DTrp-DTrp-Phe-NH2]
[2]; peptide 3 μg/ml
  Unstimulated Basal GH release: 105 ± 8 ng/mL
[2]; peptide 10 μg/ml
  Unstimulated Basal GH release: 950 ± 91 ng/mL
[2]; peptide 30 μg/ml
  Unstimulated Basal GH release: 782 ± 56 ng/mL
[2]; peptide 100 μg/ml
  Unstimulated Basal GH release: 756 ± 1 ng/mL

## DPal-Phe-DTrp-Phe-Met-NH2 [12-DPal-Phe-DTrp-Phe-Met-NH2]
[2]; peptide 3 μg/ml
  Unstimulated Basal GH release: 1081 ± 50 ng/mL
[2]; peptide 10 μg/ml
  Unstimulated Basal GH release: 997 ± 30 ng/mL
[2]; peptide 30 μg/ml
  Unstimulated Basal GH release: 425 ± 25 ng/mL

## [dF]W[dF]FM-NH2 [13-DPhe-Trp-DPhe-Phe-Met-NH2]
[2]; peptide 3 μg/ml
  Unstimulated Basal GH release: 1146 ± 34 ng/mL
[2]; peptide 10 μg/ml
  Unstimulated Basal GH release: 1086 ± 32 ng/mL
[2]; peptide 30 μg/ml
  Unstimulated Basal GH release: 871 ± 89 ng/mL

## H[dW][dW]K-NH2 [1-His-DTrp-DTrp-Lys-NH2]
[2]; peptide 3 μg/ml
  Unstimulated Basal GH release: 1124 ± 37 ng/mL
[2]; peptide 10 μg/ml
  Unstimulated Basal GH release: 749 ± 10 ng/mL
[2]; peptide 30 μg/ml
  Unstimulated Basal GH release: 615 ± 41 ng/mL

## DPal-Trp-DPhe-Phe-Met-NH2 [14-DPal-Trp-DPhe-Phe-Met-NH2]
[2]; peptide 3 μg/ml
  Unstimulated Basal GH release: 1105 ± 18 ng/mL
[2]; peptide 10 μg/ml
  Unstimulated Basal GH release: 891 ± 4 ng/mL
[2]; peptide 30 μg/ml
  Unstimulated Basal GH release: 567 ± 24 ng/mL

## αAib-DTrp-DAla-cyclohexylAla-NH2 [4-αAib-DTrp-DAla-cyclohexylAla-NH2]
[2]; peptide 1 μg/ml
  Unstimulated Basal GH release: 1086 ± 52 ng/mL
[2]; peptide 3 μg/ml
  Unstimulated Basal GH release: 1103 ± 18 ng/mL
[2]; peptide 10 μg/ml
  Unstimulated Basal GH release: 994 ± 22 ng/mL
[2]; peptide 30 μg/ml
  Unstimulated Basal GH release: 704 ± 115 ng/mL

## [dF]AF[dF]K-NH2 [7-DPhe-Ala-Phe-DPhe-Lys-NH2]
[2]; peptide 10 μg/ml
  Unstimulated Basal GH release: 267 ± 27 ng/mL
[2]; peptide 30 μg/ml
  Unstimulated Basal GH release: 276 ± 65 ng/mL
[2]; peptide 100 μg/ml
  Unstimulated Basal GH release: 360 ± 84 ng/mL

## Ac-DβNal-DTrp-NH2 [2-Ac-DβNal-DTrp-NH2]
[2]; peptide 3 μg/ml
  Unstimulated Basal GH release: 1264 ± 2 ng/mL
[2]; peptide 10 μg/ml
  Unstimulated Basal GH release: 980 ± 72 ng/mL
[2]; peptide 30 μg/ml
  Unstimulated Basal GH release: 699 ± 7 ng/mL
